Experiments:
[1] = tested on: cats with hypertrophic cardiomyopathy (HCM) and recent heart failure; assay: Exploratory clinical field study of velagliflozin in cats (Example 2, case 101); type: in vivo; details: for NT-proBNP: cardiac biomarker, screening (D −7) 177; for NT-proBNP / Grade of murmur / Resting respiratory rate / Heart rate / Point of maximum intensity / Presence of arrythmia / Presence of gallop sound / Timing of murmur / Presence of murmur / LA/Ao (left atrium to aorta ratio) / LAD max (mm) (Left atrium measured as right parasternal long-axis): cat 101, 1 mg/kg orally once per day; for BPM (mmHG): cat 101, 1 mg/kg bodyweight orally once per day, screening (D −7) 128; for Grade of murmur: screening (D −7) 4; for Resting respiratory rate: screening (D −7) 28; for Heart rate: screening (D −7) 140; for Point of maximum intensity: screening (D −7) left apical; for Presence of arrythmia / Presence of gallop sound: screening (D −7) no; for Timing of murmur: screening (D −7) systolic; for Presence of murmur: screening (D −7) yes; for LA/Ao (left atrium to aorta ratio) / LAD max (mm) (Left atrium measured as right parasternal long-axis): echocardiography; for LA/Ao (left atrium to aorta ratio): screening (D −7) 1.63; for LAD max (mm) (Left atrium measured as right parasternal long-axis): screening (D −7) 16.3
Text: In an exploratory clinical field study (prospective, baseline controlled, open label and multi-site) under real world conditions, four cats were screened for eligibility for compassionate use of velagliflozin to treat cardiomyopathies and heart failure in cats. […] Due to non-compliance to treatment regime of one pet owner only one cat remained in the study over the complete planned time period of 90 days. Clinical symptoms (evaluated in a physical examination according to Good Veterinary Practice), echocardiographic parameters (always done by the same person at each visit and according to the ACVIM consensus statement guidelines for the classification, diagnosis, and management of cardiomyopathies in cats), blood parameters (evaluated by IDEXX Bioresearch Laboratories, Germany), number of events (re-occurrence of heart failure, cardiac related death or euthanasia) and time to event in days were documented at each visit on the respective Case Report Form.
Case 101 was a 10 years old, female spayed Maine Coon cat, diagnosed with hypertrophic cardiomyopathy (HCM) and previous congestive heart failure.
LA (Left atrium dimension measured as right parasternal short-axis); Ao (Aortic root diameter); LA/Ao, left atrium to aorta ratio; IVSd (interventricular septal end diastolic dimension, i.e. the thickness of the interventricular septum); LAD (Left atrium measured as right parasternal long-axis)

[2] = Plasma NEFA, cholesterol and BHB in cats before and after four week treatment (FIG. 1); type: in vivo, cat; details: end of four week treatment period (post) vs pre, versus control
Text: A significant treatment effect, an increase in blood lipids (NEFA, cholesterol) and plasma concentrations of BHB is noted.

[3] = tested on: cat patients with every possible phenotype of cardiomyopathy (HCM, RCM, UCM, DCM and ARVC); assay: Clinical field study in client-owned cat patients with cardiomyopathy (Example 1); type: in vivo; details: 1 mg/kg bodyweight orally once daily
Method: Client-owned cat patients (older than 1 year) with every possible phenotype of cardiomyopathy (HCM, RCM, UCM, DCM and ARVC) with or without clinical symptoms (e.g. congestive heart failure) are treated orally and once daily with a velagliflozin dosage of 1 mg/kg bodyweight.
During the study period the body weight, body condition score, blood pressure and the cardiovascular system (including heart rates, rhythm, presence of gallop sound or murmur and intensity) are examined on a regular basis during the visits at the site by the investigator. Additionally, thoracic radiographs (in the right lateral and dorso ventral view), echocardiography (including LV septal & free wall thickness, LVIDD, LVIDS (FS %), LA/Ao, LAD, ejection fraction) and electrocardiography are performed. In order to obtain an overview as complete as possible regular blood tests include a complete hematology (white blood cells (WBC), WBC differential, red blood cells, hemoglobin, hematocrit, Heinz bodies, platelet count), a biochemistry panel (total protein, Albumin, Globulin, Alkaline phosphatase (ALP), Alanine transaminase (ALT), Aspartate transaminase (AST), Total bilirubin, Creatinine, Blood urea nitrogen or urea (BUN), Calcium, Sodium, Potassium, Chloride, Phosphorus, Glucose, Cholesterol, Triglycerides, Fructosamine), the measurement of total T4, ketone bodies and cardiac biomarkers (Plasma NT-pro BNP, Cardiac troponin I, ST2).
Variables of interest are the number of events defined as cardiac death, cardiac related euthanasia and (re-) occurrence of congestive heart failure and the time to event (survival time of the cat patients).

[4] = cat 101, treatment period Day 1 until Day 90, 1 mg/kg orally once per day
[5] = compared to placebo on top of standard of care

Structure (SMILES): N#Cc1ccc([C@@H]2O[C@H](CO)[C@@H](O)[C@H](O)[C@H]2O)cc1Cc1ccc(C2CC2)cc1 [velagliflozin, Velagliflozin]
- NT-proBNP ([1]; Visit 2 (D 45)): 104 pmol/L
- NT-proBNP ([1]; Visit 3 (D 90)): 39 pmol/L
- BPM (mmHG) ([1]; Visit 2 (D 45)): 136 mmHG
- BPM (mmHG) ([1]; Visit 3 (D 90)): 124 mmHG
- Grade of murmur ([1]; Visit 2 (D 45)): 3
- Resting respiratory rate ([1]; Visit 2 (D 45)): 34
- Heart rate ([1]; Visit 2 (D 45)): 180
- Point of maximum intensity ([1]; Visit 2 (D 45)): left apical
- Presence of arrythmia ([1]; Visit 2 (D 45)): no
- Presence of gallop sound ([1]; Visit 2 (D 45)): no
- Timing of murmur ([1]; Visit 2 (D 45)): systolic
- Presence of murmur ([1]; Visit 2 (D 45)): yes
- Grade of murmur ([1]; Visit 3 (D 90)): 2
- Resting respiratory rate ([1]; Visit 3 (D 90)): 34
- Heart rate ([1]; Visit 3 (D 90)): 176
- Point of maximum intensity ([1]; Visit 3 (D 90)): left apical
- Presence of arrythmia ([1]; Visit 3 (D 90)): no
- Presence of gallop sound ([1]; Visit 3 (D 90)): no
- Timing of murmur ([1]; Visit 3 (D 90)): systolic
- Presence of murmur ([1]; Visit 3 (D 90)): yes
- echocardiographic parameters (Table 2), cardiac biomarker (Table 3) and abnormal heart murmur over the treatment period ([1]; cat 101, D −7 to D 90): improved continuously
- general health at study termination ([1]; cat 101, end of 90 day study): good general health
- adverse event [1, 4]: no adverse event
- re-occurrence of heart failure or pulmonary oedema [1, 4]: no heart failure or pulmonary oedema re-occurred
- LA/Ao (left atrium to aorta ratio) ([1]; Visit 2 (D 45)): 1.36
- LAD max (mm) (Left atrium measured as right parasternal long-axis) ([1]; Visit 2 (D 45)): 13.8 mm
- LA/Ao (left atrium to aorta ratio) ([1]; Visit 3 (D 90)): 1.07
- LAD max (mm) (Left atrium measured as right parasternal long-axis) ([1]; Visit 3 (D 90)): 12.6 mm
- plasma cholesterol [2]: increase
- plasma concentrations of beta-hydroxybutyrat (BHB) [2]: increase
- plasma non-esterified fatty acids (NEFA) [2]: increase
- clinical parameters (e.g. appetite, activity level and breathing) ([3]; compared to placebo on top of SoC): improve significantly
- survival time [3, 5]: significant and clinically relevant prolongation
- time to event (cardiac death/euthanasia and (re-)occurrence of congestive heart failure) [3, 5]: significant and clinically relevant prolongation
